# Assay results: the NIST ThermoML archive (doi:10.1021/acs.jced.5b00919)
# ± gives the expanded uncertainty stated by the source.
# Assay: activity coefficient (dimensionless); of the first substance listed, at infinite dilution; xn = mol fraction of the nth substance listed
# Conditions: 338.15 K; 101 kPa; Liquid; Chromatography; x1 = 0
row,activity coefficient,SMILES
1,0.29 ± 0.03,CCCO [propan-1-ol] + CCCC[N+](C)(CCCC)CCCC.COS(=O)(=O)[O-]
2,0.24 ± 0.03,CCO [ethanol] + CCCC[N+](C)(CCCC)CCCC.COS(=O)(=O)[O-]
3,0.16 ± 0.03,CO [methanol] + CCCC[N+](C)(CCCC)CCCC.COS(=O)(=O)[O-]

# The remaining lines, values behind:
row,SMILES,activity coefficient
1,CCCCO [butan-1-ol] + CCCC[N+](C)(CCCC)CCCC.COS(=O)(=O)[O-],0.4 ± 0.03
2,CC(C)(C)O [2-methylpropan-2-ol] + CCCC[N+](C)(CCCC)CCCC.COS(=O)(=O)[O-],0.32 ± 0.03
3,CCC(C)O (centres undefined) [butan-2-ol] + CCCC[N+](C)(CCCC)CCCC.COS(=O)(=O)[O-],0.38 ± 0.03

# Same assay, conditions: 348.15 K; 101 kPa; Liquid; Chromatography; x1 = 0
row,activity coefficient,SMILES
1,0.24 ± 0.03,CCCO [propan-1-ol] + CCCC[N+](C)(CCCC)CCCC.COS(=O)(=O)[O-]
2,0.2 ± 0.03,CCO [ethanol] + CCCC[N+](C)(CCCC)CCCC.COS(=O)(=O)[O-]
3,0.15 ± 0.03,CO [methanol] + CCCC[N+](C)(CCCC)CCCC.COS(=O)(=O)[O-]

# More lines, now with the values behind:
row,SMILES,activity coefficient
1,CCCCO [butan-1-ol] + CCCC[N+](C)(CCCC)CCCC.COS(=O)(=O)[O-],0.31 ± 0.03
2,CC(C)(C)O [2-methylpropan-2-ol] + CCCC[N+](C)(CCCC)CCCC.COS(=O)(=O)[O-],0.28 ± 0.03
3,CCC(C)O (centres undefined) [butan-2-ol] + CCCC[N+](C)(CCCC)CCCC.COS(=O)(=O)[O-],0.29 ± 0.03

# Same assay, conditions: 358.15 K; 101 kPa; Liquid; Chromatography; x1 = 0
row,activity coefficient,SMILES
1,0.21 ± 0.03,CCCO [propan-1-ol] + CCCC[N+](C)(CCCC)CCCC.COS(=O)(=O)[O-]
2,0.19 ± 0.03,CCO [ethanol] + CCCC[N+](C)(CCCC)CCCC.COS(=O)(=O)[O-]
3,0.14 ± 0.03,CO [methanol] + CCCC[N+](C)(CCCC)CCCC.COS(=O)(=O)[O-]

# Continued, compound first:
row,SMILES,activity coefficient
1,CCCCO [butan-1-ol] + CCCC[N+](C)(CCCC)CCCC.COS(=O)(=O)[O-],0.25 ± 0.03
2,CC(C)(C)O [2-methylpropan-2-ol] + CCCC[N+](C)(CCCC)CCCC.COS(=O)(=O)[O-],0.25 ± 0.03
3,CCC(C)O (centres undefined) [butan-2-ol] + CCCC[N+](C)(CCCC)CCCC.COS(=O)(=O)[O-],0.24 ± 0.03

# Same assay, conditions: 368.15 K; 101 kPa; Liquid; Chromatography; x1 = 0
row,activity coefficient,SMILES
1,0.18 ± 0.03,CCCO [propan-1-ol] + CCCC[N+](C)(CCCC)CCCC.COS(=O)(=O)[O-]
2,0.17 ± 0.03,CCO [ethanol] + CCCC[N+](C)(CCCC)CCCC.COS(=O)(=O)[O-]
3,0.13 ± 0.03,CO [methanol] + CCCC[N+](C)(CCCC)CCCC.COS(=O)(=O)[O-]

# The next lines start with the compound.
row,SMILES,activity coefficient
1,CCCCO [butan-1-ol] + CCCC[N+](C)(CCCC)CCCC.COS(=O)(=O)[O-],0.22 ± 0.03
2,CC(C)(C)O [2-methylpropan-2-ol] + CCCC[N+](C)(CCCC)CCCC.COS(=O)(=O)[O-],0.23 ± 0.03
3,CCC(C)O (centres undefined) [butan-2-ol] + CCCC[N+](C)(CCCC)CCCC.COS(=O)(=O)[O-],0.2 ± 0.03
